The record followed here is patent US9133115B2 (ACHILLION PHARMACEUTICALS, INC., priority 2008, dated 2015).

One may read the EC50 as the midpoint of the concentration-response curve.

Some results are limits rather than exact numbers.

This assay relates to HCV replicon. Briefly: HCV replicon replication assay (NPT ELISA) in Huh-7 replicon-containing cells. Type of assay: cell-based. The following applies: Hepatitis C virus, 72 h; HCV replicon in Huh-7 cells, three days incubation; read-out: EC50. The method, boiled down: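 Huh-7 cells carrying a bicistronic HCV replicon (HCV-IRES-neo, EMCV-IRES-driven NS3–NS5B, 3′-NTR) were seeded at 6000-7500 cells/well, grown 24 h to 60-70% confluence, then treated with graded compound concentrations. Replication was read as NPT level by capture ELISA (rabbit anti-NPTII, Eu-N1 secondary); interferon alpha served as positive control.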
With `C=C[C@@H]1C[C@]1(NC(=O)[C@@H]1C[C@@H](Oc2nc(-c3ccccn3)cc3c(Cl)c(OC)ccc23)CN1C(=O)[C@@H](CC(=O)N1CCCCC1)C(C)(C)C)C(=O)NS(=O)(=O)C1CC1` [Compound 243, (2S,4R)-1-((S)-2-tert-butyl-4-oxo-4-(piperidin-1-yl)butanoyl)-4-(5-chloro-6-methoxy-3-(pyridin-2-yl)isoquinolin-1-yloxy)-N-((2S)-1-(cyclopropyl-sulfonylcarbamoyl)-2-vinylcyclo-propyl)pyrrolidine-2-carboxamide], the EC50 was less than 1000 nM. For `C=C[C@@H]1C[C@]1(NC(=O)[C@@H]1C[C@@H](NC(=O)c2cc(-c3ccccc3)nc3ccccc23)CN1C(=O)[C@@H](CC(=O)N1CCCC(F)C1)C(C)(C)C)C(=O)NS(=O)(=O)C1CC1` (stereo partly drawn) [Compound 204, N-((3R,5S)-1-((2S)-2-tert-butyl-4-(3-fluoropiperidin-1-yl)-4-oxobutanoyl)-5-((1R,2S)-1-(cyclopropylsulfonyl-carbamoyl)-2-vinyl-cyclopropyl-carbamoyl)pyrrolidin-3-yl)-2-phenylquinoline-4-carboxamide], the EC50 is less than 1000 nM.

For the compound `C=C[C@@H]1C[C@]1(NC(=O)[C@@H]1C[C@@H](Oc2cc(-c3ccccc3)nc3cc(OC)ccc23)CN1C(=O)[C@@H](CC(=O)N1CCCC(F)(F)C1)C(C)(C)C)C(=O)NS(=O)(=O)C1CC1` [Compound 108, (2S,4R)-1-((S)-2-tert-butyl-4-(3,3-difluoropiperidin-1-yl)-4-oxobutanoyl)-N-((1R,2S)-1-(cyclo-propylsulfonyl-carbamoyl)-2-vinylcyclopropyl)-4-(7-methoxy-2-phenylquinolin-4-yloxy)pyrrolidine-2-carboxamide], the EC50 was less than 1000 nM. On to `C=C[C@@H]1C[C@]1(NC(=O)[C@@H]1C[C@@H](Oc2cc(-c3ccccn3)nc3c(Cl)c(OC)ccc23)CN1C(=O)[C@@H](CC(=O)N1CCOCC1)C(C)(C)C)C(=O)NS(=O)(=O)C1CC1` [Compound 180, (2S,4R)-1-((S)-2-tert-butyl-4-morpholino-4-oxobutanoyl)-4-(8-chloro-7-methoxy-2-(pyridin-2-yl)quinolin-4-yloxy)-N-((1R,2S)-1-(cyclopropyl-sulfonylcarbamoyl)-2-vinyl-cyclopropyl)pyr-rolidine-2-carboxamide], for which the half-maximal effective concentration (EC50) is less than 1000 nM. For `C=C[C@@H]1C[C@]1(NC(=O)[C@@H]1C[C@@H](Oc2cc(-c3ccccc3)nc3cc(OC)ccc23)CN1C(=O)[C@@H](CC(=O)N1CCC(C(=O)NC)CC1)C(C)(C)C)C(=O)NS(=O)(=O)C1CC1` [Compound 78], the EC50 is less than 1000 nM.

`C=CC1CC1(NC(=O)C1C[C@@H](Oc2cc(-c3ccccc3)nc3cc(OC)ccc23)CN1C(=O)[C@@H](CC(=O)N1CCCCC1)Cc1ccccc1)C(=O)NS(=O)(=O)C1CC1` (stereo partly drawn) [Compound 52, (4R)-1-((R)-2-benzyl-4-oxo-4-(piperidin-1-yl)butanoyl)-N-(1-(cyclopropyl-sulfonylcarbamoyl)-2-vinylcyclopropyl)-4-(7-methoxy-2-phenylquinolin-4-yloxy)pyrrolidine-2-carboxamide]: the EC50 was less than 1000 nM. `C=C[C@@H]1C[C@]1(NC(=O)[C@@H]1C[C@@H](Oc2cc(-c3ccccc3)nc3cc(OC)ccc23)CN1C(=O)[C@@H](CC(=O)N1CCC(F)(F)CC1)C(C)(C)C)C(=O)NS(=O)(=O)C1CC1` [Compound 119, (2S,4R)-1-((S)-2-tert-butyl-4-(4,4-difluoropiperidin-1-yl)-4-oxobutanoyl)-N-((1R,2S)-1-(cyclopropylsulfonyl-carbamoyl)-2-vinylcyclopropyl)-4-(7-methoxy-2-phenylquinolin-4-yloxy)pyrrolidine-2-carboxamide]: the EC50 was less than 1000 nM. As for `C=C[C@@H]1C[C@]1(NC(=O)[C@@H]1C[C@@H](Oc2cc(-c3ccccc3)nc3cc(OC)ccc23)CN1C(=O)[C@@H](CC(=O)N1CCCCC1)C(C)(C)C)C(=O)NS(=O)(=O)C(C)(C)C` [Compound 65, (2S,4R)-1-((S)-2-tert-butyl-4-oxo-4-(piperidin-1-yl)butanoyl)-N-((1R,2S)-1-(tert-butylsulfonyl-carbamoyl)-2-vinylcyclopropyl)-4-(7-methoxy-2-phenylquinolin-4-yloxy)pyrrolidine-2-carboxamide], the EC50 lay within 1000 to 10000 nM. As to `COc1ccc2c(O[C@@H]3C[C@@H](C(=O)N[C@H](C(=O)NS(=O)(=O)C4CC4)C(C)C)N(C(=O)[C@@H](CC(=O)N4CCCCC4)C(C)(C)C)C3)cc(-c3ccccc3)nc2c1` [Compound 110, (2S,4R)-1-((S)-2-tert-butyl-4-oxo-4-(piperidin-1-yl)butanoyl)-N-((S)-1-(cyclopropane-sulfonamido)-3-methyl-1-oxobutan-2-yl)-4-(7-methoxy-2-phenylquinolin-4-yloxy)pyrrolidine-2-carboxamide], the half-maximal effective concentration (EC50) was in the range of 1000 to 10000 nM. For `CCC[C@@H](NC(=O)[C@@H]1C[C@@H](Oc2cc(-c3ccccc3)nc3cc(OC)ccc23)CN1C(=O)[C@@H](CC(=O)N1CCCCC1)C(C)(C)C)C(=O)NS(=O)(=O)C1CC1` [Compound 117, (2S,4R)-1-((S)-2-tert-butyl-4-oxo-4-(piperidin-1-yl)butanoyl)-N-((R)-1-(cyclopropanesulfon-amido)-1-oxopentan-2-yl)-4-(7-methoxy-2-phenylquinolin-4-yloxy)pyrrolidine-2-carboxamide], the EC50 fell in the range of 1000 to 10000 nM. For the compound `COc1ccc2c(O[C@@H]3C[C@@H](C(=O)N[C@@H](C)C(=O)NS(=O)(=O)C4CC4)N(C(=O)[C@@H](CC(=O)N4CCCCC4)C(C)(C)C)C3)cc(-c3ccccc3)nc2c1` [Compound 114, (2S,4R)-1-((S)-2-tert-butyl-4-oxo-4-(piperidin-1-yl)butanoyl)-N-((S)-1-(cyclopropanesulfon-amido)-1-oxopropan-2-yl)-4-(7-methoxy-2-phenylquinolin-4-yloxy)pyrrolidine-2-carboxamide], the EC50 lay in the range of 1000 to 10000 nM.

`C=C[C@@H]1C[C@]1(NC(=O)[C@@H]1C[C@@H](Oc2nc(-c3ccccn3)nc3ccsc23)CN1C(=O)[C@@H](CC(=O)N1CCCCC1)C(C)(C)C)C(=O)NS(=O)(=O)C1CC1` [Compound 122, (2S,4R)-1-((S)-2-tert-butyl-4-oxo-4-(piperidin-1-yl)butanoyl)-N-((1R,2S)-1-(cyclopropylsulfonyl-carbamoyl)-2-vinylcyclopropyl)-4-(2-(pyridin-2-yl)thieno[3,2-d]pyrimidin-4-yloxy)pyrrolidine-2-carboxamide]: the half-maximal effective concentration (EC50) was 1000 to 10000 nM.

As for `C=C[C@@H]1C[C@]1(NC(=O)[C@@H]1C[C@@H](Oc2cc(-c3ccccc3)nc3cc(OC)ccc23)CN1C(=O)[C@@H](CC(=O)N1CCCCC1)C(C)(C)C)C(=O)NS(=O)(=O)CCC` [Compound 136, (2S,4R)-1-((S)-2-tert-butyl-4-oxo-4-(piperidin-1-yl)butanoyl)-4-(7-methoxy-2-phenylquinolin-4-yloxy)-N-((1R,2S)-1-(propylsulfonyl-carbamoyl)-2-vinyl-cyclopropyl)pyr-rolidine-2-carboxamide], the EC50 was less than 1000 nM. `C=C[C@@H]1C[C@]1(NC(=O)[C@@H]1C[C@@H](Oc2cc(-c3ccccc3)nc3cc(OC)ccc23)CN1C(=O)[C@@H](CC(=O)N1CCCCCC1)C(C)(C)C)C(=O)NS(=O)(=O)C1CC1` [Compound 77, (2S,4R)-1-((S)-4-(azepan-1-yl)-2-tert-butyl-4-oxobutanoyl)-N-((1R,2S)-1-(cyclopropyl-sulfonylcarbamoyl)-2-vinylcyclopropyl)-4-(7-methoxy-2-phenylquinolin-4-yloxy)pyrrolidine-2-carboxamide]: the EC50 is less than 1000 nM. For the compound `C=CC1CC1(NC(=O)[C@@H]1C[C@@H](Oc2cc(-c3ccccc3)nc3cc(OC)ccc23)CN1C(=O)C[C@H](C(=O)N1C(=O)OC[C@@H]1Cc1ccccc1)C(C)(C)C)C(=O)NS(=O)(=O)C1CC1` (stereo partly drawn) [Compound 47, (2S,4R)-1-((S)-3-((S)-4-benzyl-2-oxooxazolidine-3-carbonyl)-4,4-dimethyl-pentanoyl)-N-(1-(cyclopropyl-sulfonylcarbamoyl)-2-vinylcyclopropyl)-4-(7-methoxy-2-phenylquinolin-4-yloxy)pyrrolidine-2-carboxamide], the EC50 was in the range of 1000 to 10000 nM. As for `C=CC1CC1(NC(=O)[C@@H]1C[C@@H](Oc2cc(-c3ccccc3)nc3cc(OC)ccc23)CN1C(=O)[C@@H](CC(=O)N1CCC(CCC)CC1)C(C)(C)C)C(=O)NS(=O)(=O)C1CC1` (stereo partly drawn) [Compound 43, (2S,4R)-1-((S)-2-tert-butyl-4-oxo-4-(4-propylpiperidin-1-yl)butanoyl)-N-(1-(cyclopropyl-sulfonyl-carbamoyl)-2-vinylcyclopropyl)-4-(7-methoxy-2-phenylquinolin-4-yloxy)pyrrolidine-2-carboxamide], the EC50 is 1000 to 10000 nM. For `C=C[C@@H]1C[C@]1(NC(=O)[C@@H]1C[C@@H](OC(=O)n2c3ccc(Cl)cc3c3cc(Cl)ccc32)CN1C(=O)[C@@H](CC(=O)N1CCCCC1)C(C)(C)C)C(=O)NS(=O)(=O)C1CC1` [Compound 155, (3R,5S)-1-((S)-2-tert-butyl-4-oxo-4-(piperidin-1-yl)butanoyl)-5-((1R,2S)-1-(cyclo-propylsulfonyl-carbamoyl)-2-vinyl-cyclopropyl-carbamoyl)pyrrolidin-3-yl 3,6-dichloro-9H-carbazole-9-carboxylate] the value was less than 1000 nM; for `C=C[C@@H]1C[C@]1(NC(=O)[C@@H]1C[C@@H](OC(=O)N(c2ccccc2)c2ccccc2)CN1C(=O)[C@@H](CC(=O)N1CCCCC1)C(C)(C)C)C(=O)NS(=O)(=O)C1CC1` [Compound 129, (3R,5S)-1-((S)-2-tert-butyl-4-oxo-4-(piperidin-1-yl)butanoyl)-5-((1R,2S)-1-(cyclopropylsulfon-ylcarbamoyl)-2-vinylcyclopropyl-carbamoyl)pyr-rolidin-3-yl diphenylcarbamate], 1000 to 10000 nM.
